Assay results taken from patent publication US20150104507A1 (UCB PHARMA GMBH, priority 2010, published 2015).
Several values for one entry are separate records, joined by “and”; a condition that tells them apart may be missing. Equal values may be shown once. Read-outs that look alike come from different tables or passages of the source.

Tests used:
[1] = cited from earlier work
[2] = Thorough QT trial: dizziness as adverse event vs tmax; assay type: in vivo; settings: human, plasma, oral; day 6 of SP640; range 1-4 h; read-out: tmax, time for maximum LCM plasma concentration (median)
Method: In a thorough QT trial safety profile of lacosamide (LCM) was characterized. During day 2-6 of multiple dose administration of an IR formulation (Vimpat®) of 200 or 400 mg LCM bid 45 times ‘DIZZINESS’ was detected as adverse event (AE). Time of onset was 1.4+/−0.8 h after actual administration of LCM. This corresponds exactly to the typical time for maximum LCM plasma concentration tmax (e.g., 1 h (median, range 1-4 h) at day 6 of SP640).

[3] = test system: subjects with partial-onset seizures; assay: PK-PD modeling of seizure frequency (Emax model, Example 54); assay type: in vivo, human
Text: (§1) Objectives of the PK-PD analysis were to evaluate and describe the correlation between the LCM plasma concentration over time (PK parameter) and the reduction of daily seizures over time (PD parameter) based on the pooled data from the previous clinical human trials.
(§2) The evaluation of PK-PD modeling was done based on the Emax model.
(§3) The slope of the linear regression is equal to the mean daily number of seizures.
(§4) In a first step, the validity of the developed equations for approximation of AUCτ,ss, the PK parameter of interest in the current PK-PD evaluation, was shown.
(§5) Based on the relative difference of the individual slopes during Titration and Maintenance Phase vs Baseline slope and the approximated AUCτ,ss,m, the PK-PD evaluation was performed using a linear model, the Emax model, and the Emax 100 model. […] Finally, the Emax model had the lowest weighted sum of squares and was therefore selected as the most appropriate PK-PD model to describe the data. […] The AUC50 is defined as the AUCτ,ss that is needed in individuals to achieve 50% of the maximum effect (decrease in seizure frequency).

[4] = as above; assay type: in vivo, human; settings: human, plasma, read-out: Corresponding AUCτ,ss
Text: as §1, §2, §3, §4, §5

[5] = AUC of 67 μg/mL*h (mean dose 200 mg LCM bid)
[6] = Emax model, daily dose 50 mg bid (subject with Vd 50 L, ke 0.06 h^-1)
[7] = Emax model, daily dose 100 mg bid (subject with Vd 50 L, ke 0.06 h^-1)
[8] = Emax model, daily dose 110 mg bid (subject with Vd 50 L, ke 0.06 h^-1), AUC50
[9] = Emax model, daily dose 150 mg bid (subject with Vd 50 L, ke 0.06 h^-1)
[10] = Emax model, daily dose 200 mg bid (subject with Vd 50 L, ke 0.06 h^-1)
[11] = Emax model, daily dose 250 mg bid (subject with Vd 50 L, ke 0.06 h^-1)
[12] = Emax model, daily dose 300 mg bid (subject with Vd 50 L, ke 0.06 h^-1)

With COC[C@@H](NC(C)=O)C(=O)NCc1ccccc1 [Lacosamide, (R)-2-Acetamido-N-benzyl-3-methoxypropionamide] as the molecule, how does the “maximum dosage-normalized steady state plasma level (Cmax, ss, norm)” value ([1]; IR tablets twice daily, average distribution volume 50 litres) read?
The value was 40 to 43 ng/mL/mg.

And the Tmax ([1]; IR tablets, after administration)?
Its Tmax is 1.4 to 1.5 h.

And the elimination half-life ([1]; in vivo)?
The elimination half-life was 13 to 14 h.

And the bioavailability ([1]; oral)?
The bioavailability was roughly 100%.

And the Tmax [2]?
The Tmax was 1 h.

And the “decrease as percent of the maximum effect” value [3, 5]?
Its value is 65%.

What about the “decrease of the daily number of seizures” value [3, 5] of the same molecule?
Its value is 46%.

What about the “AUC50 (AUC needed to achieve half of the maximum effect), arithmetic mean (SD)” value ([3]; Emax model, N = 615 subjects) of the same molecule?
Its value is 35.9 (185.6) μg/mL*h.

And the “AUC50, 1st quantile” value ([3]; Emax model, N = 615 subjects)?
Its value is 0 µg·h/mL.

What about the “AUC50, 3rd quantile” value ([3]; Emax model, N = 615 subjects) of the same molecule?
The value was 27.27 µg·h/mL.

What about the “AUC50, median” value ([3]; Emax model, N = 615 subjects) of the same molecule?
Its value is 1.05 µg·h/mL.

And the “AUC50, range” value ([3]; Emax model, N = 615 subjects)?
Its value is 0 to 3998 µg·h/mL.

What about the “Emax, 3rd quantile” value ([3]; Emax model, N = 615 subjects) of the same molecule?
Its value is 100%.

And the “Emax, arithmetic mean (SD)” value ([3]; Emax model, N = 615 subjects)?
The value was 71.0 (30.0) %.

And the “Emax, median” value ([3]; Emax model, N = 615 subjects)?
The value was 77.0%.

And the “Emax, range” value ([3]; Emax model, N = 615 subjects)?
Its value is 0.06-100%.

What about the “Emax, maximum effect (reduction of the seizure frequency vs baseline)” value ([3]; Emax model, pooled clinical trials, adjunctive LCM) of the same molecule?
The value was 71%.

And the “AUC50 (AUC at steady-state to achieve half of the maximum decrease in partial seizure frequency), mean” value ([3]; Emax model, pooled clinical trials, listed as LCM)?
The value was 35 µg·h/mL and 35.9 µg·h/mL.

And the “Decrease of daily number of seizures, E(AUC) % of Emax” value (shortened to “Decrease … E(AUC) % of Emax”) [3, 6]?
Its value is 31.7 % of Emax.

And the “Decrease of daily number of seizures, E(AUC) % of base line” value (shortened to “Decrease … E(AUC) % of base line”) [3, 6]?
Its value is 22.5 % of base line.

What about the “Decrease … E(AUC) % of Emax” value [3, 7] of the same molecule?
The value was 48.1 % of Emax.

What about the “Decrease … E(AUC) % of base line” value [3, 7] of the same molecule?
Its value is 34.2 % of base line.

What about the “Decrease … E(AUC) % of Emax” value [3, 8] of the same molecule?
Its value is 50 % of Emax.

What about the “Decrease … E(AUC) % of base line” value [3, 8] of the same molecule?
Its value is 35.1 % of base line.

And the “Decrease … E(AUC) % of Emax” value [3, 9]?
The value was 58.2 % of Emax.

And the “Decrease … E(AUC) % of base line” value [3, 9]?
The value was 41.3 % of base line.

What about the “Decrease … E(AUC) % of Emax” value [3, 10] of the same molecule?
The value was 65.0 % of Emax.

And the “Decrease … E(AUC) % of base line” value [3, 10]?
The value was 46.1 % of base line.

What about the “Decrease … E(AUC) % of Emax” value [3, 11] of the same molecule?
The value was 69.9 % of Emax.

What about the “Decrease … E(AUC) % of base line” value [3, 11] of the same molecule?
Its value is 49.6 % of base line.

And the “Decrease … E(AUC) % of Emax” value [3, 12]?
Its value is 73.6 % of Emax.

And the “Decrease … E(AUC) % of base line” value [3, 12]?
Its value is 52.2 % of base line.

And the “decrease as percent of the maximum effect” value ([3]; in vivo)?
The value was 74%.

And the “decrease of the daily number of (partial) seizures” value ([3]; in vivo)?
The value was 52%.

And the AUC ([4]; 50 mg)?
The AUC was 16700 ng·h/mL.

What about the AUC ([4]; 100 mg) of the same molecule?
The AUC was 33300 ng·h/mL.

And the AUC ([4]; 110 mg)?
The AUC was 35900 ng·h/mL.

What about the AUC ([4]; 150 mg) of the same molecule?
Its AUC is 50000 ng·h/mL.

And the AUC ([4]; 200 mg)?
Its AUC is 66700 ng·h/mL.

And the AUC ([4]; 250 mg)?
The AUC was 83300 ng·h/mL.

What about the AUC ([4]; 300 mg) of the same molecule?
The AUC was 100000 ng·h/mL.
